One block for each compound: values may come before it.
Columns and labels:
lipid peroxidation = assay: Inhibition of lipid peroxidation in vitro, thiobarbituric acid test (synaptosomal membrane fraction, Fenton's reagent); details: read-out: Lipid peroxidation inhibition [IC50], iron(II) chloride/hydrogen peroxide, 30 min at 37° C.
LDL oxidation = assay: Inhibition of LDL oxidation in vitro, method of Esterbauer et al (1988), CuSO4, 234 nm; format: biochemical; details: 1 μM, LDL isolated from human whole blood, room temperature, at least 8 h
Method: The measurement of in vitro inhibition of LDL oxidation was performed in accordance with Esterbauer et al (1988): Effect of peroxidative conditions on human plasma low density lipoproteins. In: Eicosanoids, lipid peroxidation and cancer (ed. Nigam et al), pages 203-214, Springer-Verlag,Berlin, Heidelberg, New York.
The values listed in Table 2 for inhibition of LDL oxidation represent examples for cardiovascular activities.
Testing of the substances for inhibitory action with regard to LDL oxidation, by the method of Esterbauer et al (1988), was carried out as follows:
The reaction mixture is incubated at room temperature over a period of at least 8 h and followed spectral photometrically (the absorption maximum of the oxidized LDL is at 234 nm). In accordance with the extinction changes, recorded at the measurement wavelength of 234 nm, in the presence or absence of test substances or in comparison of the native and the oxidized LDL, definitive statements on the influence on the oxidized LDL by the action of the test substance.
Dosage-action analysis of the test substances.

Compound: COc1ccc2c(c1)CC[C@@H]1[C@@H]2CC[C@@]2(C)[C@H]1CC[C@@]2(O)Cc1cc(C)c(O)c(C)c1
- IC50 (lipid peroxidation): 2.34 µM

Compound: Cc1cc(C2=C[C@@H]3[C@H](CC[C@]4(C)[C@@H](O)CC[C@@H]34)c3ccc(O)cc32)cc(C)c1O [6-2',6'-Dimethyl-4'-hydroxyphenylestra-1,3,5(10),6-tetraene-3,17β-diol]
- LDL oxidation inhibition (prolongation of lag phase in min) (LDL oxidation): 180 min
- IC50 (lipid peroxidation): 0.95 µM

Compound: CN(C)c1ccc(C2=C[C@@H]3[C@H](CC[C@]4(C)[C@@H](O)CC[C@@H]34)c3ccc(O)cc32)cc1 [6-4'-N,N-Dimethylaminophenylestra-1,3,5(10),6-tetraene-3,17β-diol]
- IC50 (lipid peroxidation): 2.75 µM

Compound: C[C@]12CC[C@H]3[C@@H](C[C@@H](c4ccc(O)cc4)C4=CC(=O)CC[C@@]43C)[C@@H]1CC[C@@H]2O [6β-4'-Hydroxyphenyl-17β-hydroxyandrost-4-ene-3-one]
- IC50 (lipid peroxidation): 60 µM

Compound: CN(C)c1ccc(C2=CC[C@H]3[C@@H]4CCc5cc(O)ccc5[C@H]4CC[C@]23C)cc1 [17-4'-N,N-Dimethylaminophenylestra-1,3,5(10),16-tetraene-3-ol]
- IC50 (lipid peroxidation): 4.5 µM

- IC50 (lipid peroxidation): 4.97 µM
Compound: COc1ccc2c(c1)CCC1C2CCC2(C)C1CCC2(O)C[Se]c1c(C(C)(C)C)cc(O)cc1C(C)(C)C (stereo not drawn) [17α2',6'-Di-tert.-butyl-4'-hydroxyphenylselenomethyl-3-methoxyestra-1,3,5(10)-triene-17-ol]

- IC50 (lipid peroxidation): 12.6 µM
Compound: COc1ccc2c(c1)CCC1C2CCC2(C)C1CCC2(O)Cc1c(C(C)(C)C)cc(O)cc1C(C)(C)C (stereo not drawn) [17α-2',6'-Di-tert.-butyl-4'-hydroxyphenylmethyl-3-methoxyestra-1,3,5(10)-triene-17-ol]

Compound: Cc1cc(O)cc(C)c1CC1(O)CCC2C3CCC4=CC(=O)CCC4C3CCC21C (stereo not drawn) [17α-2',6'-Dimethyl-4'-hydroxyphenylmethyl-17-hydroxyestr-4-ene-3-one]
- IC50 (lipid peroxidation): 1.92 µM

- IC50 (lipid peroxidation): 1.97 µM
Compound: COc1ccc2c(c1)CCC1C2CCC2(C)C1CCC2(O)C[Se]c1c(C)cc(O)cc1C (stereo not drawn) [17α-2',6'-Dimethyl-4'-hydroxyphenylselenomethyl-3-methoxyestra-1,3,5(10)-triene-17-ol]

Compound: C[C@]12CC[C@H]3[C@@H](CCC4=CC(=O)CC[C@@H]43)[C@@H]1CC[C@@]2(O)COc1ccc(O)cc1 [17α-4'-Hydroxyphenoxymethyl-17-hydroxyestr-4-ene-3-one]
- IC50 (lipid peroxidation): 10.1 µM

Compound: COC1(OC)CCC2=C(CC[C@@H]3[C@@H]2CC[C@@]2(C)[C@H]3CC[C@@]2(O)CSc2ccc(O)cc2)C1 [17α-4'-Hydroxyphenylmercaptomethyl-3,3-dimethoxyestr-5(10)-ene-17-ol]
- IC50 (lipid peroxidation): 1.46 µM

Compound: COc1ccc2c(c1)CC[C@@H]1[C@@H]2CC[C@@]2(C)[C@H]1CC[C@@]2(O)CSc1ccc(O)cc1 [17α-4'-Hydroxyphenylmercaptomethyl-3-methoxyestra-1,3,5(10)-triene-17-ol]
- IC50 (lipid peroxidation): 4.32 µM

Compound: CC1CC(=O)CC2CCC3C(CCC4(C)C3CCC4(O)CSc3ccc(O)cc3)C12C (stereo not drawn) [17α-4'-Hydroxyphenylmercaptomethyl-17-hydroxy-1α-methyl-5α-androstan-3-one]
- IC50 (lipid peroxidation): 3.82 µM

Compound: C[C@]12CCC(=O)C[C@@H]1CC[C@@H]1[C@@H]2CC[C@@]2(C)[C@H]1CC[C@@]2(O)CSc1ccc(O)cc1 [17α-4'-Hydroxyphenylmercaptomethyl-17-hydroxy-5α-androstan-3-one]
- IC50 (lipid peroxidation): 4.75 µM

Compound: C[C@]12CCC(=O)C=C1CC[C@@H]1[C@@H]2CC[C@@]2(C)[C@H]1CC[C@@]2(O)CSc1ccc(O)cc1 [17α-4'-Hydroxyphenylmercaptomethyl-17-hydroxyandrost-4-ene-3-one]
- IC50 (lipid peroxidation): 10.9 µM

Compound: C[C@]12CC[C@H]3[C@@H](CCC4=CC(=O)CC[C@@H]43)[C@@H]1CC[C@@]2(O)CSc1ccc(O)cc1 [17α-4'-Hydroxyphenylmercaptomethyl-17-hydroxyestr-4-ene-3-one]
- IC50 (lipid peroxidation): 8.6 µM

Compound: C[C@]12CC=C3c4ccc(O)cc4CC[C@H]3[C@@H]1CC[C@@]2(O)CSc1ccc(O)cc1 [17α-4'-Hydroxyphenylmercaptomethylestra-1,3,5(10),9(11)-tetraene-3,17-diol]
- LDL oxidation inhibition (prolongation of lag phase in min) (LDL oxidation): 270 min
- IC50 (lipid peroxidation): 0.44 µM

Compound: C[C@]12CC[C@@H]3c4ccc(O)cc4CC[C@H]3[C@@H]1CC[C@@]2(O)CSc1ccc(O)cc1 [17α-4'-Hydroxyphenylmercaptomethylestra-1,3,5(10)-triene-3,17-diol]
- LDL oxidation inhibition (prolongation of lag phase in min) (LDL oxidation): 120 min
- IC50 (lipid peroxidation): 2.2 µM

Compound: COc1ccc2c(c1)CC[C@@H]1[C@@H]2CC[C@@]2(C)[C@H]1CC[C@@]2(O)Cc1ccc(O)cc1 [17α-4'-Hydroxyphenylmethyl-3-methoxyestra-1,3,5(10)-triene-17-ol]
- IC50 (lipid peroxidation): 2.64 µM

Compound: C[C@]12CC[C@H]3[C@@H](CCC4=CC(=O)CC[C@@H]43)[C@@H]1CC[C@@]2(O)Cc1ccc(O)cc1 [17α-4'-Hydroxyphenylmethyl-17-hydroxyestr-4-ene-3-one]
- IC50 (lipid peroxidation): 50 µM

Compound: C[C@]12CC=C3c4ccc(O)cc4CC[C@H]3[C@@H]1CC[C@@]2(O)Cc1ccc(O)cc1 [17α-4'-Hydroxyphenylmethylestra-1,3,5(10),9(11)-tetraene-3,17-diol]
- LDL oxidation inhibition (prolongation of lag phase in min) (LDL oxidation): 230 min
- IC50 (lipid peroxidation): 0.32 µM

Compound: C[C@]12CC[C@@H]3c4ccc(O)cc4CC[C@H]3[C@@H]1CC[C@@]2(O)Cc1ccc(O)cc1 [17α-4'-Hydroxyphenylmethylestra-1,3,5(10)-triene-3,17-diol]
- LDL oxidation inhibition (prolongation of lag phase in min) (LDL oxidation): 125 min
- IC50 (lipid peroxidation): 4.03 µM

Compound: CN(C)c1ccc([C@]2(O)CC[C@H]3[C@@H]4CCc5cc(O)ccc5[C@H]4CC[C@@]32C)cc1 [17α-4'-N,N-Dimethylaminophenylestra-1,3,5(10)-triene-3,17-diol]
- LDL oxidation inhibition (prolongation of lag phase in min) (LDL oxidation): 170 min
- IC50 (lipid peroxidation): 0.95 µM

Compound: COc1ccc2c(c1)CC[C@@H]1[C@@H]2CC[C@@]2(C)[C@H]1CC[C@@]2(O)Cc1ccc(N(C)C)cc1 [17α-4'-N,N-Dimethylaminophenylmethyl-3-methoxyestra-1,3,5(10)-triene-17-ol]
- LDL oxidation inhibition (prolongation of lag phase in min) (LDL oxidation): 195 min
- IC50 (lipid peroxidation): 1.64 µM

Compound: CN(C)c1ccc(C[C@]2(O)CC[C@H]3[C@@H]4CCC5=CC(=O)CC[C@@H]5[C@H]4CC[C@@]32C)cc1 [17α-4'-N,N-Dimethylaminophenylmethyl-17-hydroxyestr-4-ene-3-one]
- IC50 (lipid peroxidation): > 10 µM

Compound: CN(C)c1ccc(C[C@]2(O)CC[C@H]3[C@@H]4CCc5cc(O)ccc5C4=CC[C@@]32C)cc1 [17α-4'-N,N-Dimethylaminophenylmethylestra-1,3,5(10),9(11)-tetraene-3,17-diol]
- IC50 (lipid peroxidation): 2.1 µM

Compound: CN(C)c1ccc(C[C@]2(O)CC[C@H]3[C@@H]4CCc5cc(O)ccc5[C@H]4CC[C@@]32C)cc1 [17α-4'-N,N-Dimethylaminophenylmethylestra-1,3,5(10)-triene-3,17-diol]
- IC50 (lipid peroxidation): 3.53 µM

Compound: COc1ccc2c(c1)CC[C@@H]1[C@@H]2CC[C@@]2(C)[C@H]1CC[C@@]2(O)C[Se]c1ccc(N(C)C)cc1 [17α-4'-N,N-Dimethylaminophenylselenomethyl-3-methoxyestra-1,3,5(10)-triene-17-ol]
- IC50 (lipid peroxidation): 1.33 µM

Compound: COC1(OC)CCC2=C(CC[C@@H]3[C@@H]2CC[C@@]2(C)[C@H]3CC[C@@]2(O)Cc2ccc(N(C)C)cc2)C1 [17α-4'-N,N-Dimethylphenylmethyl-3,3-dimethoxyestr-5(10)-ene-17-ol]
- IC50 (lipid peroxidation): 5.5 µM

Compound: C[C@]12CC[C@@H]3c4ccc(O)cc4CC[C@H]3[C@@H]1CC[C@@H]2O [17β-Estradiol, reference compound]
- LDL oxidation inhibition (prolongation of lag phase in min) (LDL oxidation): 40 min
- IC50 (lipid peroxidation): 12.4 µM

Compound: C[C@]12CC[C@@H]3c4ccc(O)cc4CC[C@H]3[C@@H]1C[C@@H](O)[C@@H]2O [Estriol, reference compound]
- LDL oxidation inhibition (prolongation of lag phase in min) (LDL oxidation): 20 min
- IC50 (lipid peroxidation): 22.5 µM

Compound: Cc1c(C)c2c(c(C)c1O)CCC(C)(CN1CCN(c3cc(N4CCCC4)nc(N4CCCC4)n3)CC1)O2 (stereo not drawn) [Example U-78517F, reference compound]
- LDL oxidation inhibition (prolongation of lag phase in min) (LDL oxidation): 20 min

Compound: Vitamin E [reference compound]
- IC50 (lipid peroxidation): 132 µM
